Molecular target: T1, human liver FBPase (Homo sapiens, UniProt P09467)
T1 construct: made in house; host or cells: E. coli
T1 sequence (P09467 2-338 limits assumed): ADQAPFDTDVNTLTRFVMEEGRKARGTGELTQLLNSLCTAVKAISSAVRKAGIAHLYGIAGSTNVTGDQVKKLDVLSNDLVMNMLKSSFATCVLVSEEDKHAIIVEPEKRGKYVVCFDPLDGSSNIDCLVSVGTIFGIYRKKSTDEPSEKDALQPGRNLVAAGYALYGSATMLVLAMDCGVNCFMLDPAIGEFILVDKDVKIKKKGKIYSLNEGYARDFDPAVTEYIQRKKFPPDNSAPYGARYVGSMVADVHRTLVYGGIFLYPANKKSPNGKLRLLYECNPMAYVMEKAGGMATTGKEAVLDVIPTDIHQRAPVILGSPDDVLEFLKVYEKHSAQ
Experiment: FBPase assay (inorganic phosphate release, malachite green)
Type: biochemical
Conditions: recombinant human liver FBPase, 50 μM fructose-1,6-bisphosphate, read-out at 620 nm
Experimental: The following tests were carried out for evaluating the inhibitory activity of the compounds of the present invention against human liver FBPase (Swissprot Data base reference PO9467, entry F16P_HUMAN).
Enzyme preparation: Human liver FBPase cDNA (NM_000507) was purchased from Origene Technologies, Inc, subcloned in a vector for expression in E. Coli., and sequenced. Recombinant human liver FBPase (hlFBPase) was purified according to the following protocol that uses heat denaturation similarly to that described by El-Maghrabi et. al. [El-Maghrabi, M. R. et al. “Isolation of a human liver fructose-1,6-bisphosphatase cDNA and expression of the protein in Escherichia coli.” J Biol Chem 268:9466-9472, 1993.]. […] Purity of the enzyme preparation was >90% as assessed by Mass spectrometry.
In vitro activity: Recombinant human liver FBPase (hlFBPase) activity was assayed through measuring the inorganic phosphate release that results from the hydrolysis of Fructose-1,6-bisphosphate by the enzyme. […] Anal. Biochem., 171:266-270, 1988], inorganic phosphate can be readily quantified by spectrophotometry at 620 nm after complexation with ammonium molybdate/malachite green reagent. […] Under these conditions, the assay was linear with time and able to detect FBPase inhibition after spectrophotometric read-out at 620 nm.

Compound | IC50 [nM]
Cc1cccc(S(=O)(=O)NC(=O)Nc2ncc(Br)s2)c1 [Example 5, N-[(5-Bromo-1,3-thiazol-2-yl)carbamoyl]-3-methylbenzenesulfonamide] | 250
COc1ccc(-c2sc(S(=O)(=O)NC(=O)Nc3ncc(Br)s3)cc2C)cc1 [Example 52, N-[(5-Bromo-1,3-thiazol-2-yl)carbamoyl]-5-(4-methoxyphenyl)-4-methyl-thiophene-2-sulfonamide] | 65

From patent US7868030B2, “FBPase inhibitors for diabetes” (Hoffmann-La Roche Inc., priority 2006, dated 2011)
